Test results as given in ChEMBL document CHEMBL4017441, “Mitigating the inhibition of human bile salt export pump by drugs: opportunities provided by physicochemical property modulation, in silico modeling, and structural modification” (Drug Metab Dispos, 2012).

The molecules below were run against Bile salt export pump (Homo sapiens, UniProt O95342).
Assay type: ADME
For `O=C1OC(OC(=O)c2cccnc2Nc2cccc(C(F)(F)F)c2)c2ccccc21` (configuration not stated) [TALNIFLUMATE], the IC50 was > 1000 µM. `Cc1scc2c1N(C(=O)CN1CCN(C)CC1)c1ccccc1NC2=O` [TELENZEPINE] showed an IC50 of 315 µM. With `CC1(C)CC(O)CC(C)(C)N1[O]` [TEMPOL] the IC50 was > 1000 µM. `CC(C)(C)c1cc(C(C)(C)C)c2oc(C(=O)O)cc(=O)c2c1` [TERBUCROMIL] was tested, and the IC50 was < 10 µM. With `CC(C)(C)c1ccc(C(O)CCCN2CCC(C(O)(c3ccccc3)c3ccccc3)CC2)cc1` (configuration not stated) [TERFENADINE] the IC50 was < 17.5 µM. Molecule `CCCCNc1ccc(C(=O)OCCN(C)C)cc1` [TETRACAINE] has an IC50 of 513 µM. `O=C1C(O)=C(O)C(=O)C(O)=C1O` [TETROQUINONE] was tested, and the IC50 was > 1000 µM. In the case of `O=C1CCC(N2C(=O)c3ccccc3C2=O)C(=O)N1` (configuration not stated) [THALIDOMIDE], the IC50 is reported as > 1000 µM. For `c1ccc2[nH]c(-c3cscn3)nc2c1` [THIABENDAZOLE], the IC50 was 560 µM. Molecule `CSc1ccc2c(c1)N(CCC1CCCCN1C)c1ccccc1S2` (configuration not stated) [THIORIDAZINE] has an IC50 of 24.3 µM. For `O=C(O)c1ccccc1S` [THIOSALICYLIC ACID], the IC50 was > 1000 µM. `S=P(N1CC1)(N1CC1)N1CC1` [THIOTEPA] was tested, and the IC50 was > 1000 µM. In the case of `CN1CCN(CC/C=C2/c3ccccc3Sc3ccc(S(=O)(=O)N(C)C)cc32)CC1` [THIOTHIXENE], the IC50 is reported as 30.4 µM. For `CC(C)(C)NC[C@H](O)COc1nsnc1N1CCOCC1` [TIMOLOL], the IC50 was > 1000 µM. In the case of `C[N+]1(C)[C@@H]2C[C@@H](OC(=O)C(O)(c3cccs3)c3cccs3)C[C@H]1[C@@H]1O[C@@H]12` [TIOTROPIUM], the IC50 is reported as > 1000 µM. In the case of `Cc1ccc(S(=O)(=O)NC(=O)NN2CCCCCC2)cc1` [TOLAZAMIDE], the IC50 is reported as 286 µM. `Cc1ccc(C(=O)c2cc(O)c(O)c([N+](=O)[O-])c2)cc1` [TOLCAPONE] was tested, and the IC50 was < 33.9 µM. In the case of `Cc1cccc(N(C)C(=S)Oc2ccc3ccccc3c2)c1` [TOLNAFTATE], the IC50 is reported as < 10.3 µM. For `COc1ccc2c(C(=S)N(C)CC(=O)O)cccc2c1C(F)(F)F` [TOLRESTAT], the IC50 was 185 µM. For `CCCc1c(OCCCCc2nnn[nH]2)ccc(C(C)=O)c1O` [TOMELUKAST], the IC50 was < 10.7 µM. `CC1(C)O[C@@H]2[C@@H](CO[C@@]3(COS(N)(=O)=O)OC(C)(C)O[C@@H]23)O1` [TOPIRAMATE] was tested, and the IC50 was > 1000 µM. For `CCOCn1cnc2c1c(=O)n(CCCCC(C)(C)O)c(=O)n2C` [TORBAFYLLINE], the IC50 was 305 µM. `Cc1cccc(Nc2ccncc2S(=O)(=O)NC(=O)NC(C)C)c1` [TORSEMIDE] showed an IC50 of 131 µM. For `N[C@@H]1C[C@H]1c1ccccc1.N[C@H]1C[C@@H]1c1ccccc1` [TRANYLCYPROMINE], the IC50 was > 1000 µM. With `CC1=C(/C=C/C(C)=C/C=C/C(C)=C/C(=O)O)C(C)(C)CCC1` [TRETINOIN] the IC50 was < 10 µM. `C[C@]12C=CC(=O)C=C1CC[C@H]1[C@@H]3C[C@@H](O)[C@](O)(C(=O)CO)[C@@]3(C)C[C@H](O)[C@@]12F` [TRIAMCINOLONE] was tested, and the IC50 was 236 µM. Molecule `O=C(CCCN1CCC(O)(c2cccc(C(F)(F)F)c2)CC1)c1ccc(F)cc1` [TRIFLUPERIDOL] has an IC50 of 19.7 µM. With `CN(C)CCCN1c2ccccc2Sc2ccc(C(F)(F)F)cc21` [TRIFLUPROMAZINE] the IC50 was 39 µM. With `O=c1[nH]c(=O)n([C@H]2C[C@H](O)[C@@H](CO)O2)cc1C(F)(F)F` [TRIFLURIDINE] the IC50 was > 1000 µM. `CCC(COC(=O)c1cc(OC)c(OC)c(OC)c1)(c1ccccc1)N(C)C` (configuration not stated) [TRIMEBUTINE] was tested, and the IC50 was < 10 µM. With `COc1cc(Cc2cnc(N)nc2N)cc(OC)c1OC` [TRIMETHOPRIM] the IC50 was 833 µM. `COc1cc(C(=O)N2CCOCC2)cc(OC)c1OC` [TRIMETOZINE] was tested, and the IC50 was > 1000 µM. `Cc1cc2cc3c(C)cc(=O)oc3c(C)c2o1` [TRIOXSALEN] was tested, and the IC50 was > 525 µM. For `Cc1ccc(/C(=C\CN2CCCC2)c2ccccn2)cc1` [TRIPROLIDINE], the IC50 was 291 µM. With `Cc1c(C)c2c(c(C)c1O)CCC(C)(COc1ccc(CC3SC(=O)NC3=O)cc1)O2` (configuration not stated) [TROGLITAZONE] the IC50 was 6.9 µM. `CCN(Cc1ccncc1)C(=O)C(CO)c1ccccc1` (configuration not stated) [TROPICAMIDE] was tested, and the IC50 was 151 µM. With `CC(C)(C)NCC(O)c1ccccc1Cl` (configuration not stated) [TULOBUTEROL] the IC50 was > 1000 µM. With `C[C@H](CCC(=O)O)[C@H]1CC[C@H]2[C@@H]3[C@@H](O)C[C@@H]4C[C@H](O)CC[C@]4(C)[C@H]3CC[C@]12C` [URSODIOL] the IC50 was < 10 µM. In the case of `CCOC(=O)[C@H](CCc1ccccc1)N[C@@H](C)C(=O)N1N=C(C(C)(C)C)S[C@H]1C(=O)O` [UTIBAPRIL], the IC50 is reported as < 13.5 µM. `Clc1ccc(Nc2nnc(Cc3ccncc3)c3ccccc23)cc1` [VATALANIB] was tested, and the IC50 was < 10 µM. `COc1ccc(C(CN(C)C)C2(O)CCCCC2)cc1` (configuration not stated) [VENLAFAXINE] was tested, and the IC50 was > 1000 µM. Work on `CC(=O)CC(c1ccccc1)c1c(O)c2ccccc2oc1=O` (configuration not stated) [WARFARIN] yielded an IC50 of 115 µM. With `FC(F)(F)c1cccc(C2=CCN(CCc3ccc4ccccc4c3)CC2)c1` [XALIPRODEN] the IC50 was 117 µM. For `Cc1cccc(C)c1N=C1NCCCS1` [XYLAZINE], the IC50 was > 1000 µM. For `Cc1cc(C(C)(C)C)cc(C)c1CC1=NCCN1` [XYLOMETAZOLINE], the IC50 was > 796 µM. `COC(=O)[C@@H]1[C@H]2C[C@H]3c4[nH]c5ccccc5c4CCN3C[C@@H]2CC[C@@H]1O` [YOHIMBINE] was tested, and the IC50 was 254 µM. `C[C@](O)(C(=O)Nc1ccc(C(=O)c2ccccc2)cc1)C(F)(F)F` [ZD-6169] showed an IC50 of 21.4 µM. In the case of `CC(c1cc2ccccc2s1)N(O)C(N)=O` (configuration not stated) [ZILEUTON], the IC50 is reported as > 751 µM. BISMUTH SUBSALICYLATE was tested, and the IC50 was > 1000 µM. With IVERMECTIN the IC50 was < 10 µM. In the case of PHENYLMERCURIC ACETATE, the IC50 is reported as < 10 µM.

These molecules were tested against T1, Bile salt export pump (Rattus norvegicus, UniProt O70127) (assay: Inhibition of BSEP in Sprague-Dawley rat canalicular membrane vesicles assessed as reduction in ATP-dependent [3H]-taurocholate uptake).
T1 sequence (O70127 whole entry): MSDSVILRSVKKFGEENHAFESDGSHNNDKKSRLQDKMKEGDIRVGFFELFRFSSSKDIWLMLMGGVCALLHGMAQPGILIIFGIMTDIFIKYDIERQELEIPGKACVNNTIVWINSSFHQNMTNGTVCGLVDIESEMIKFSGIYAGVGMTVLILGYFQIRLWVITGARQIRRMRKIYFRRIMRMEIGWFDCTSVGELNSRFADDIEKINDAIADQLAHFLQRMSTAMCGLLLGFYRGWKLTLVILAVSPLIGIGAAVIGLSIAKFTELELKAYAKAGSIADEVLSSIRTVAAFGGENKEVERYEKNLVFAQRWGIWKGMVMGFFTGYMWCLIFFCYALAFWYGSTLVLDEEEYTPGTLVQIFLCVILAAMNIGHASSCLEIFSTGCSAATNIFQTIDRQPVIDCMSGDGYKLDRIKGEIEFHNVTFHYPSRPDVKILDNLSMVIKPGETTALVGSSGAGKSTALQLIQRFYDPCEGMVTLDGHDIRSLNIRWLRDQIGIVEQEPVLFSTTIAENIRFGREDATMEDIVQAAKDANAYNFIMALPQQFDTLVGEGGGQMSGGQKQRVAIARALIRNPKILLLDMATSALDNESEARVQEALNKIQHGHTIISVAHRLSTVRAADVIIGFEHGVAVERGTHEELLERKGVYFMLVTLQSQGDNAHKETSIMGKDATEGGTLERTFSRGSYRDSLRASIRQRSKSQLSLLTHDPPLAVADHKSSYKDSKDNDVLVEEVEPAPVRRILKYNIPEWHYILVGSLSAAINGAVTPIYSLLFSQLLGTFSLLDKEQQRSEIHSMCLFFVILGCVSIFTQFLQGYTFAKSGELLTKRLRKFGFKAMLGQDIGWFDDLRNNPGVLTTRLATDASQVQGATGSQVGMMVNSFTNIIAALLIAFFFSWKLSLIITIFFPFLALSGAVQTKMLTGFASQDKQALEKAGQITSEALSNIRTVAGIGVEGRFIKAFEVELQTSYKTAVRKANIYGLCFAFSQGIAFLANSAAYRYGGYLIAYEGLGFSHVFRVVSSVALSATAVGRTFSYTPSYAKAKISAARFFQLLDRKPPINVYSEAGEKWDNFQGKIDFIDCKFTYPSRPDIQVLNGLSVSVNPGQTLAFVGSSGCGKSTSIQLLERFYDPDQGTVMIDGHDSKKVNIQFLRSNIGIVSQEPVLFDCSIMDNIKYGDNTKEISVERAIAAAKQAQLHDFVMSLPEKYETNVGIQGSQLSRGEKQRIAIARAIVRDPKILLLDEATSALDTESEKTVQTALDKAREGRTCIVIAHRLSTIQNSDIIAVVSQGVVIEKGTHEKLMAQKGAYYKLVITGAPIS
Assay type: ADME
`COc1ccc(CCN(C)CCCC(C#N)(c2ccc(OC)c(OC)c2)C(C)C)cc1OC` (configuration not stated) was tested, and the Ki was 92.5 µM.
